For 14 molecules, IC50 and activity results are on record in patent publication US20260297081A1, “COMPOUNDS AND METHODS OF TREATING CANCERS” (Cullgen Inc., priority 2023, published 2026).

The subject of one assay is MCF7 cells. Nature of the assay: Anti-proliferation (viability) of MCF7 cells (Table 7, FIG. 2B). The assay is classed as cell-based. The conditions noted are these: Homo sapiens, MCF7, MCF7 cells, 3-6 days, 10-point serial dilution; read-out: GI IC50 in MCF-7.
The next assay addresses CDK4 (Homo sapiens, UniProt P11802+Q16531). The experiment in a line: HiBiT detection of HiBiT-tagged CDK4 protein level in MCF7 cells, 16 hours (Table 8). Type of assay: cell-based. The arrangement: expressed in transfected cells; host or cells: MCF7. The conditions noted are these: MCF7 cells stably expressing HiBiT tagged target proteins; for activity at 0.01 µM: 10 nM, read-out: % CDK4 Relative Level (10 nM); for activity at 0.1 µM: 100 nM, read-out: % CDK4 Relative Level (100 nM). How it is done:
HiBiT detection system quantitatively measures total amounts of HiBiT-tagged proteins using a luminescent based method. MCF7 cells stably expressing HiBiT tagged target proteins were treated with heterobifunctional compounds at indicated concentrations for 16 hours, then lysed with Nano-Glo HiBiT Lytic detection reagents.

Chain of CDK4 (P11802 whole entry): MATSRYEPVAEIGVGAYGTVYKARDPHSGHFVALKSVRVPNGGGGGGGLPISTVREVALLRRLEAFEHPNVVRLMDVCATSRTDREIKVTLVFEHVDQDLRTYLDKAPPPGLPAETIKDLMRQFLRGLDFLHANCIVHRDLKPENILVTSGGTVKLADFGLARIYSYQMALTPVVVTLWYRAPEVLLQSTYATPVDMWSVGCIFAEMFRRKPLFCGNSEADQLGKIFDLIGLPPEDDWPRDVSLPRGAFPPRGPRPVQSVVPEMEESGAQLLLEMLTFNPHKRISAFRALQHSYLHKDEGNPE
Chain of CDK4 (P24385 whole entry partner): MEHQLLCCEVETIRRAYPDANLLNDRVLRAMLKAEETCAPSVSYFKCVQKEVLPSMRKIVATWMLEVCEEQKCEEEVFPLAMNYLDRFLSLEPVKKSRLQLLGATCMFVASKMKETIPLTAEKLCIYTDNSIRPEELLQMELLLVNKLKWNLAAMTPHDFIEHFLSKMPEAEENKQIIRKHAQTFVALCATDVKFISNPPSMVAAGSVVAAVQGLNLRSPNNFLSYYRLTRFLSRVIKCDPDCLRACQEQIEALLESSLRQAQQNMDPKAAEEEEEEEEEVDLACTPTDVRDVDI
Chain of CDK4 (Q16531 2-1140 limits assumed): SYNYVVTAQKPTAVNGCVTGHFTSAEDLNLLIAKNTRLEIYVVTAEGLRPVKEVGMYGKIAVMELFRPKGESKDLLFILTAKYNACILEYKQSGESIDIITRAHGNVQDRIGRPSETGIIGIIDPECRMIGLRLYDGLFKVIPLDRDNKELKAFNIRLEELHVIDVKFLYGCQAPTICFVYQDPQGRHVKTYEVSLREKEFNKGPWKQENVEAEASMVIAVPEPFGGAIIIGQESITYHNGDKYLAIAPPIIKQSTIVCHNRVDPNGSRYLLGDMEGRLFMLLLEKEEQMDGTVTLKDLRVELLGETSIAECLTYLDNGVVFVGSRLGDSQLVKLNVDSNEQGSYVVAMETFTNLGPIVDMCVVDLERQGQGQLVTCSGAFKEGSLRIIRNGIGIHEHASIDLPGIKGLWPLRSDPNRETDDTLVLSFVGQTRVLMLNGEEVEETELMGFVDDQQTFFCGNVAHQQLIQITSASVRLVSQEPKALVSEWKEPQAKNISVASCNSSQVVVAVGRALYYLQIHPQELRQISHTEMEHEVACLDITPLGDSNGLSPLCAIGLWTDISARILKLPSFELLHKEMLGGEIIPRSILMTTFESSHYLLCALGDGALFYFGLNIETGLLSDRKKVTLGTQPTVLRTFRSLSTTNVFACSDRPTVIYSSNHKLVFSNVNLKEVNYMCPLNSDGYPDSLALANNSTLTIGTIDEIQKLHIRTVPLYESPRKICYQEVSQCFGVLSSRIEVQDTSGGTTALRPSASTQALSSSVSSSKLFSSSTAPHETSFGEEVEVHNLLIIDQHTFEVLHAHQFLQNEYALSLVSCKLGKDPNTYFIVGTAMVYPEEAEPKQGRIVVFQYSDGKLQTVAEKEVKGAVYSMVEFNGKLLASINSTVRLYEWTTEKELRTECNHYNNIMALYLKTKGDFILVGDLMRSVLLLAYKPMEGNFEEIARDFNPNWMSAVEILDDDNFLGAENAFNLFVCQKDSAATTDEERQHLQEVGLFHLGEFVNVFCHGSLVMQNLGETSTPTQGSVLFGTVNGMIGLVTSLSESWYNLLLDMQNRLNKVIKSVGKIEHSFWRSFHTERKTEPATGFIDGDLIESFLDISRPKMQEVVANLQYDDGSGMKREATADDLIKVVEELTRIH

In the case of `CNc1ccc(C(=O)Nc2ccc(N(C)C)nn2)c(NCCCNC(=O)CN2CCN(c3ccc(Nc4ncc5cc(C(=O)N(C)C)n(C6CCCC6)c5n4)nc3)CC2)n1` [CPD-625, 7-cyclopentyl-2-((5-(4-(2-((3-((3-((6-(dimethylamino)pyridazin-3-yl)carbamoyl)-6-(methylamino)pyridin-2-yl)amino)propyl)amino)-2-oxoethyl)piperazin-1-yl)pyridin-2-yl)amino)-N,N-dimethyl-7H-pyrrolo[2,3-d]pyrimidine-6-carboxamide], the IC50 in the assay on MCF7 cells was > 0.1 µM. Also, at CDK4, the activity at 0.01 µM was in the range of 55 to 85% and the activity at 0.1 µM was in the range of 55 to 85%.

For `CC(=O)c1c(C)c2cnc(Nc3ccc(N4CCC5(CC4)CC5C(=O)NC4CC5(C4)CC(Nc4nc(NC(C)C)ccc4C(=O)Nc4ccc(N(C)C)nn4)C5)cn3)nc2n(C2CCCC2)c1=O` (stereo not drawn) [CPD-414, 6-(6-((6-acetyl-8-cyclopentyl-5-methyl-7-oxo-7,8-dihydropyrido[2,3-d]pyrimidin-2-yl)amino)pyridin-3-yl)-N-(6-((3-((6-(dimethylamino)pyridazin-3-yl)carbamoyl)-6-(isopropylamino)pyridin-2-yl)amino)spiro[3.3]heptan-2-yl)-6-azaspiro[2.5]octane-1-carboxamide], in the assay with MCF7 cells, the IC50 is < 0.05 µM. Besides, on CDK4, the activity at 0.01 µM lay in the range of 55 to 85% and the activity at 0.1 µM fell in the range of 55 to 85%.

As for `CNc1ccc(C(=O)Nc2ccc(N(C)C)nn2)c(NCCCCCCCCNC(=O)CN2CCN(c3ccc(Nc4ncc5cc(C(=O)N(C)C)n(C6CCCC6)c5n4)nc3)CC2)n1` [CPD-630, 7-cyclopentyl-2-((5-(4-(2-((8-((3-((6-(dimethylamino)pyridazin-3-yl)carbamoyl)-6-(methylamino)pyridin-2-yl)amino)octyl)amino)-2-oxoethyl)piperazin-1-yl)pyridin-2-yl)amino)-N,N-dimethyl-7H-pyrrolo[2,3-d]pyrimidine-6-carboxamide], the IC50 with MCF7 cells was > 0.1 µM. On CDK4, the activity at 0.01 µM was in the range of 55 to 85% and the activity at 0.1 µM was in the range of 55 to 85%.

On to `CNc1ccc(C(=O)Nc2ccc(N(C)C)nn2)c(NCCCC(=O)N2CCN(Cc3ccc(Nc4ncc(F)c(-c5cc(F)c6nc(C)n(C(C)C)c6c5)n4)nc3)CC2)n1` [CPD-601, N-(6-(dimethylamino)pyridazin-3-yl)-2-((4-(4-((6-((5-fluoro-4-(4-fluoro-1-isopropyl-2-methyl-1H-benzo[d]imidazol-6-yl)pyrimidin-2-yl)amino)pyridin-3-yl)methyl)piperazin-1-yl)-4-oxobutyl)amino)-6-(methylamino)nicotinamide], for which the IC50 in the assay with MCF7 cells is > 0.1 µM. At CDK4, the activity at 0.01 µM was in the range of 55 to 85% and the activity at 0.1 µM fell in the range of 55 to 85%.

With `CNc1ccc(C(=O)Nc2ccc(N(C)C)nn2)c(NCCCCCCCCNC(=O)CN2CCN(c3ccc(Nc4ncc5cc6n(c5n4)C4(CCCCC4)CNC6=O)nc3)CC2)n1` [CPD-646, N-(6-(dimethylamino)pyridazin-3-yl)-6-(methylamino)-2-((8-(2-(4-(6-((6′-oxo-7′,8′-dihydro-6′H-spiro[cyclohexane-1,9′-pyrazino[1′,2′:1,5]pyrrolo[2,3-d]pyrimidin]-2′-yl)amino)pyridin-3-yl)piperazin-1-yl)acetamido)octyl)amino)nicotinamide], the IC50 with MCF7 cells is > 0.1 µM. Besides, at CDK4, the activity at 0.01 µM was > 85% and the activity at 0.1 µM is > 85%.

In the case of `CNc1ccc(C(=O)Nc2ccc(N(C)C)nn2)c(NCCCCCCC(=O)N2CCN(c3ccc(Nc4ncc5cc(C(=O)N(C)C)n(C6CCCC6)c5n4)nc3)CC2)n1` [CPD-620, 7-cyclopentyl-2-((5-(4-(7-((3-((6-(dimethylamino)pyridazin-3-yl)carbamoyl)-6-(methylamino)pyridin-2-yl)amino)heptanoyl)piperazin-1-yl)pyridin-2-yl)amino)-N,N-dimethyl-7H-pyrrolo[2,3-d]pyrimidine-6-carboxamide], the IC50 in the assay on MCF7 cells was > 0.1 µM. On CDK4, the activity at 0.01 µM lay within 55 to 85% and the activity at 0.1 µM lay in the range of 55 to 85%.

On to `CC(=O)c1c(C)c2cnc(Nc3ccc(CN4CCC(N(C)C(=O)C5CC6(CC(Nc7nc(NC(C)C)ccc7C(=O)Nc7ccc(N(C)C)nn7)C6)C5)CC4)cn3)nc2n(C2CCCC2)c1=O` (stereo not drawn) [CPD-595, 2-((6-((1-((6-((6-acetyl-8-cyclopentyl-5-methyl-7-oxo-7,8-dihydropyrido[2,3-d]pyrimidin-2-yl)amino)pyridin-3-yl)methyl)piperidin-4-yl)(methyl)carbamoyl)spiro[3.3]heptan-2-yl)amino)-N-(6-(dimethylamino)pyridazin-3-yl)-6-(isopropylamino)nicotinamide], for which, in the assay with MCF7 cells, the IC50 is < 0.05 µM. Moreover, on CDK4, the activity at 0.01 µM was > 85% and the activity at 0.1 µM lay within 55 to 85%.

As to `CNc1ccc(C(=O)Nc2ccc(N(C)C)nn2)c(NCCOCCOCCC(=O)N2CCN(Cc3ccc(Nc4ncc(F)c(-c5cc(F)c6nc(C)n(C(C)C)c6c5)n4)nc3)CC2)n1` [CPD-607, N-(6-(dimethylamino)pyridazin-3-yl)-2-((2-(2-(3-(4-((6-((5-fluoro-4-(4-fluoro-1-isopropyl-2-methyl-1H-benzo[d]imidazol-6-yl)pyrimidin-2-yl)amino)pyridin-3-yl)methyl)piperazin-1-yl)-3-oxopropoxy)ethoxy)ethyl)amino)-6-(methylamino)nicotinamide], in the assay on MCF7 cells, the IC50 is > 0.1 µM. Also, on CDK4, the activity at 0.01 µM was > 85% and the activity at 0.1 µM was > 85%.

Consider `CC(=O)c1c(C)c2cnc(Nc3ccc(N4CCN(C5CCN(C(=O)C67CC(Nc8nc(NC(C)C)ccc8C(=O)Nc8cc(C)n(C)n8)(C6)C7)C5)CC4)cn3)nc2n(C2CCCC2)c1=O` (stereo not drawn) [CPD-587, 2-((3-(3-(4-(6-((6-acetyl-8-cyclopentyl-5-methyl-7-oxo-7,8-dihydropyrido[2,3-d]pyrimidin-2-yl)amino)pyridin-3-yl)piperazin-1-yl)pyrrolidine-1-carbonyl)bicyclo[1.1.1]pentan-1-yl)amino)-N-(1,5-dimethyl-1H-pyrazol-3-yl)-6-(isopropylamino)nicotinamide], for which the IC50 in the assay with MCF7 cells was < 0.05 µM. Besides, at CDK4, the activity at 0.01 µM was 55 to 85% and the activity at 0.1 µM was 55 to 85%.

`CNc1ccc(C(=O)Nc2ccc(N(C)C)nn2)c(NCCCCNC(=O)CN2CCN(c3ccc(Nc4ncc5cc(C(=O)N(C)C)n(C6CCCC6)c5n4)nc3)CC2)n1` [CPD-626, 7-cyclopentyl-2-((5-(4-(2-((4-((3-((6-(dimethylamino)pyridazin-3-yl)carbamoyl)-6-(methylamino)pyridin-2-yl)amino)butyl)amino)-2-oxoethyl)piperazin-1-yl)pyridin-2-yl)amino)-N,N-dimethyl-7H-pyrrolo[2,3-d]pyrimidine-6-carboxamide]: the IC50 in the assay with MCF7 cells was > 0.1 µM. Also, on CDK4, the activity at 0.01 µM is 55 to 85% and the activity at 0.1 µM fell in the range of 55 to 85%.

`CC(C)Nc1ccc(C(=O)Nc2ccc(N(C)C)nn2)c(NC2CC3(CC(NC(=O)CN4CCN(Cc5ccc(Nc6ncc7cc8n(c7n6)C6(CCCCC6)CNC8=O)nc5)CC4)C3)C2)n1` (stereo not drawn) [CPD-558, N-(6-(dimethylamino)pyridazin-3-yl)-6-(isopropylamino)-2-((6-(2-(4-((6-((6′-oxo-7′,8′-dihydro-6′H-spiro[cyclohexane-1,9′-pyrazino[1′,2′:1,5]pyrrolo[2,3-d]pyrimidin]-2′-yl)amino)pyridin-3-yl)methyl)piperazin-1-yl)acetamido)spiro[3.3]heptan-2-yl)amino)nicotinamide]: the IC50 in the assay on MCF7 cells is > 0.1 µM. Besides, on CDK4, the activity at 0.01 µM is > 85% and the activity at 0.1 µM is > 85%.

As for `CNc1ccc(C(=O)Nc2ccc(N(C)C)nn2)c(NCCOCCOCCC(=O)N2CCN(c3ccc(Nc4ncc5cc6n(c5n4)C4(CCCCC4)CNC6=O)nc3)CC2)n1` [CPD-639, N-(6-(dimethylamino)pyridazin-3-yl)-6-(methylamino)-2-((2-(2-(3-oxo-3-(4-(6-((6′-oxo-7′,8′-dihydro-6′H-spiro[cyclohexane-1,9′-pyrazino[1′,2′:1,5]pyrrolo[2,3-d]pyrimidin]-2′-yl)amino)pyridin-3-yl)piperazin-1-yl)propoxy)ethoxy)ethyl)amino)nicotinamide], the IC50 in the assay with MCF7 cells was > 0.1 µM. Also, at CDK4, the activity at 0.01 µM is > 85% and the activity at 0.1 µM is > 85%.

`CC(=O)c1c(C)c2cnc(Nc3ccc(CN4CCN(CC(=O)N5CC6(CC(Nc7nc(NC(C)C)ccc7C(=O)Nc7ccc(N(C)C)nn7)C6)C5)CC4)cn3)nc2n(C2CCCC2)c1=O` [CPD-422, 2-((2-(2-(4-((6-((6-acetyl-8-cyclopentyl-5-methyl-7-oxo-7,8-dihydropyrido[2,3-d]pyrimidin-2-yl)amino)pyridin-3-yl)methyl)piperazin-1-yl)acetyl)-2-azaspiro[3.3]heptan-6-yl)amino)-N-(6-(dimethylamino)pyridazin-3-yl)-6-(isopropylamino)nicotinamide]: the IC50 with MCF7 cells was < 0.05 µM. Further, at CDK4, the activity at 0.01 µM was > 85% and the activity at 0.1 µM was in the range of 55 to 85%.

On to `CNc1ccc(C(=O)Nc2ccc(N(C)C)nn2)c(NCCCC(=O)N2CCN(c3ccc(Nc4ncc5cc(C(=O)N(C)C)n(C6CCCC6)c5n4)nc3)CC2)n1` [CPD-617, 7-cyclopentyl-2-((5-(4-(4-((3-((6-(dimethylamino)pyridazin-3-yl)carbamoyl)-6-(methylamino)pyridin-2-yl)amino)butanoyl)piperazin-1-yl)pyridin-2-yl)amino)-N,N-dimethyl-7H-pyrrolo[2,3-d]pyrimidine-6-carboxamide], for which, in the assay with MCF7 cells, the IC50 is > 0.1 µM. Further, on CDK4, the activity at 0.01 µM is > 85% and the activity at 0.1 µM was > 85%.
